Experimental data as given in patent US10189839B2, “Tricyclic imidazole compounds as inhibitors of tryptophan hydroxylase” (ACTELION PHARMACEUTICALS LTD, priority 2013, dated 2019).

Target: T1, full length human TPH1 (Homo sapiens, UniProt P17752)
T1 construct: To generate the enzyme, full length human TPH1 is cloned into the plasmid pET20b(+); made in house; host or cells: E. coli
T1 sequence (P17752 1-444): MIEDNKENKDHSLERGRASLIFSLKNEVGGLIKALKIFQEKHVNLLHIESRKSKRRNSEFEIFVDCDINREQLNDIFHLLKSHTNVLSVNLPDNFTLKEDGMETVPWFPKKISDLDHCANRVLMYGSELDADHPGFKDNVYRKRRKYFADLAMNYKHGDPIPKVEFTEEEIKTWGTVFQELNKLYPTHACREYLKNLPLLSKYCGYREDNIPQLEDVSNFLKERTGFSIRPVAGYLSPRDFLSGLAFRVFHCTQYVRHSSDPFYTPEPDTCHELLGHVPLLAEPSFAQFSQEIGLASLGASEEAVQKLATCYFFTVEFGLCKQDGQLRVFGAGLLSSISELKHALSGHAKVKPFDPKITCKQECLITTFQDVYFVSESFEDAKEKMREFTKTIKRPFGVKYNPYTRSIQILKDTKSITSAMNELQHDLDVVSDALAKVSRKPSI
Assay: Biochemical in vitro assay using fluorescence readout (TPH1 enzyme activity)
Details: Table 1, mean where determined several times
How it was run: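 E. coli-expressed full-length human TPH1 (40-80 nM), affinity- and size-exclusion-purified, incubated 60 min at 15° C. in 0.1M Tris-HCl pH 7.6 with 1 mM DTT, 0.2 mg/ml catalase, 100 μM 6-methyltetrahydropterine and 40 μM L-tryptophan. 5-Hydroxy-L-tryptophan read by fluorescence (ex 300/em 540 nm) after HClO4 quench; IC50 versus vehicle, mean where repeated.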

SMILES	IC50 [µM]
COCCN(C)c1ccc(OCC(=O)N2CCc3nc4n(c3C2c2ccc(Cl)cc2F)CCCC4)c(Cl)n1 (centres unmarked) [Example 1.1.24, 1-(1-(4-chloro-2-fluorophenyl)-3,4,6,7,8,9-hexahydroimidazo[1,2-a:5,4-c′]dipyridin-2(1H)-yl)-2-((2-chloro-6-((2-methoxyethyl)(methyl)amino)pyridin-3-yl)oxy)ethan-1-one]	0.062
Cc1nc(C)c(C2c3c(nc4n3CCCC4)CCN2C(=O)COc2ccc(N(C)S(C)(=O)=O)nc2Cl)s1 (centres unmarked) [Example 1.10.12, N-(6-chloro-5-(2-(1-(2,4-dimethylthiazol-5-yl)-3,4,6,7,8,9-hexahydroimidazo[1,2-a:5,4-c′]dipyridin-2(1H)-yl)-2-oxoethoxy)pyridin-2-yl)-N-methylmethanesulfonamide]	0.02
O=C(COc1ccc(N2CCOCC2)nc1Cl)N1CCc2nc3n(c2C1c1ccc(Cl)cc1F)CCCC3 (centres unmarked) [Example 1.1.2, 1-(1-(4-chloro-2-fluorophenyl)-3,4,6,7,8,9-hexahydro-imidazo[1,2-a:5,4-c′]dipyridin-2(1H)-yl)-2-((2-chloro-6-morpholinopyridin-3-yl)oxy)ethanone]	0.007
Cc1nc(C(C)C)sc1C1c2c(nc3n2CCCC3)CCN1C(=O)COc1ccc(NS(C)(=O)=O)nc1Cl (centres unmarked) [Example 1.12.1, N-(6-chloro-5-(2-(1-(2-isopropyl-4-methylthiazol-5-yl)-3,4,6,7,8,9-hexahydroimidazo[1,2-a:5,4-c′]dipyridin-2(1H)-yl)-2-oxoethoxy)pyridin-2-yl)methanesulfonamide]	0.819
CCc1nc(C(=O)NC2CC2)ccc1OCC(=O)N1CCc2nc3n(c2C1c1ccc(Cl)cc1F)CCCC3 (centres unmarked) [Example 1.1.12, 5-(2-(1-(4-chloro-2-fluorophenyl)-3,4,6,7,8,9-hexahydroimidazo[1,2-a:5,4-c′]dipyridin-2(1H)-yl)-2-oxoethoxy)-N-cyclopropyl-6-ethylpicolinamide]	0.009
N#Cc1ccc(C2c3c(nc4n3CCCC4)CCN2C(=O)COc2ccc(C(=O)NC3CC3)nc2Cl)c(F)c1 (centres unmarked) [Example 1.22.2, 6-chloro-5-(2-(1-(4-cyano-2-fluorophenyl)-3,4,6,7,8,9-hexahydroimidazo[1,2-a:5,4-c′]dipyridin-2(1H)-yl)-2-oxoethoxy)-N-cyclopropylpicolinamide]	0.028
Cc1ccc(C2c3c(nc4n3CCC4)CCN2C(=O)COc2ccc(NS(C)(=O)=O)nc2Cl)c(F)c1 (centres unmarked) [Example 2.2.1, N-(6-chloro-5-(2-(1-(2-fluoro-4-methylphenyl)-3,4,7,8-tetrahydro-1H-pyrrolo[2′,1′:2,3]imidazo[4,5-c]pyridin-2(6H)-yl)-2-oxoethoxy)pyridin-2-yl)methanesulfonamide]	0.015
CCc1nc(NS(C)(=O)=O)ccc1OCC(=O)N1CCc2nc3n(c2[C@@H]1c1sc(C)nc1C)CCC3 [Example 2.4.2, (R)-N-(5-(2-(1-(2,4-dimethylthiazol-5-yl)-3,4,7,8-tetrahydro-1H-pyrrolo[2′,1′:2,3]imidazo[4,5-c]pyridin-2(6H)-yl)-2-oxoethoxy)-6-ethylpyridin-2-yl)methanesulfonamide]	0.007
O=C(NC1CC1)c1ccc(OCC(=O)N2CCc3nc4n(c3[C@@H]2c2ccc(C3CC3)cc2F)CCCC4)c(Cl)n1 [Example 1.8.6, (S)-6-chloro-N-cyclopropyl-5-(2-(1-(4-cyclopropyl-2-fluorophenyl)-3,4,6,7,8,9-hexahydroimidazo[1,2-a:5,4-c′]dipyridin-2(1H)-yl)-2-oxoethoxy)picolinamide]	0.009
COC(C)(C)c1ccc(C2c3c(nc4n3CCCC4)CCN2C(=O)COc2ccc(C(=O)NC3CC3)nc2Cl)c(F)c1 (centres unmarked) [Example 1.25.1, 6-chloro-N-cyclopropyl-5-(2-(1-(2-fluoro-4-(2-methoxypropan-2-yl)phenyl)-3,4,6,7,8,9-hexahydroimidazo[1,2-a:5,4-c′]dipyridin-2(1H)-yl)-2-oxoethoxy)picolinamide]	0.068
COC(C)(C)c1ccc(C2c3c(nc4n3CCCC4)CCN2C(=O)COc2ccc(NS(C)(=O)=O)nc2Cl)c(F)c1 (centres unmarked) [Example 1.25.2, N-(6-chloro-5-(2-(1-(2-fluoro-4-(2-methoxypropan-2-yl)phenyl)-3,4,6,7,8,9-hexahydroimidazo[1,2-a:5,4-c′]dipyridin-2(1H)-yl)-2-oxoethoxy)pyridin-2-yl)methanesulfonamide]	0.303
CCc1nc(N2CCCS2(=O)=O)ccc1OCC(=O)N1CCc2nc3n(c2C1c1sc(C)nc1C)CCCC3 (centres unmarked) [Example 1.10.19, 1-(1-(2,4-dimethylthiazol-5-yl)-3,4,6,7,8,9-hexahydroimidazo[1,2-a:5,4-c′]dipyridin-2(1H)-yl)-2-((6-(1,1-dioxidoisothiazolidin-2-yl)-2-ethylpyridin-3-yl)oxy)ethan-1-one]	0.011
Cc1ccc(C2c3c(nc4n3CCCC4)CCN2C(=O)COc2ccc(-c3ncco3)nc2Cl)c(F)c1F (centres unmarked) [Example 1.9.1, 2-((2-chloro-6-(oxazol-2-yl)pyridin-3-yl)oxy)-1-(1-(2,3-difluoro-4-methylphenyl)-3,4,6,7,8,9-hexahydroimida-zo[1,2-a:5,4-c′]dipyridin-2(1H)-yl)ethanone]	0.02

Other lines, results leading:

IC50 [µM]	SMILES
0.011	O=C(COc1ccc(C2CC2)nc1Cl)N1CCc2nc3n(c2C1c1ccc(Cl)cc1F)CCS3 (centres unmarked) [Example 4.1.13, 1-(5-(4-chloro-2-fluorophenyl)-2,3,7,8-tetrahydrothiazolo[2′,3′:2,3]imidazo[4,5-c]pyridin-6(5H)-yl)-2-((2-chloro-6-cyclopropylpyridin-3-yl)oxy)ethanone]
0.019	CCc1nc(NS(C)(=O)=O)ccc1OCC(=O)N1CCc2nc3n(c2C1c1sccc1F)CCS3 (centres unmarked) [Example 4.6.3, N-(6-ethyl-5-(2-(5-(3-fluorothiophen-2-yl)-2,3,7,8-tetrahydrothiazolo[2′,3′:2,3]imidazo[4,5-c]pyridin-6(5H)-yl)-2-oxoethoxy)pyridin-2-yl)methanesulfonamide]
0.011	CCc1nc(C)ccc1OCC(=O)N1CCc2nc3n(c2C1c1ccc(C2CC2)cc1F)CCN(C(C)=O)C3 (centres unmarked) [Example 5.2.17, 1-(7-acetyl-1-(4-cyclopropyl-2-fluorophenyl)-3,4,6,7,8,9-hexahydropyrido[4′,3′:4,5]imidazo[1,2-a]pyrazin-2(1H)-yl)-2-((2-ethyl-6-methylpyridin-3-yl)oxy)ethanone]
0.041	CN(C)C(=O)c1ccc(OCC(=O)N2CCc3nc4n(c3C2c2ccc(Cl)cc2F)CCN(C2CC2)C4)c(Cl)n1 (centres unmarked) [Example 5.1.4, 6-chloro-5-(2-(1-(4-chloro-2-fluorophenyl)-7-cyclopropyl-3,4,6,7,8,9-hexahydropyrido[4′,3′:4,5]imidazo[1,2-a]pyrazin-2(1H)-yl)-2-oxoethoxy)-N,N-dimethylpicolinamide]
0.028	CC(=O)N1CCn2c(nc3c2C(c2ccc(C4CC4)cc2F)N(C(=O)COc2cccnc2Cl)CC3)C1 (centres unmarked) [Example 5.2.14, 1-(7-acetyl-1-(4-cyclopropyl-2-fluorophenyl)-3,4,6,7,8,9-hexahydropyrido[4′,3′:4,5]imidazo[1,2-a]pyrazin-2(1H)-yl)-2-((2-chloropyridin-3-yl)oxy)ethanone]
0.021	Cc1ccc(C2c3c(nc4n3CCCCC4)CCN2C(=O)COc2ccc(NS(C)(=O)=O)nc2Cl)c(F)c1 (centres unmarked) [Example 3.2.1, N-(6-chloro-5-(2-(1-(2-fluoro-4-methylphenyl)-3,4,7,8,9,10-hexahydro-1 H-pyrido[4′,3′:4,5]imidazo-[1,2-a]azepin-2(6H)-yl)-2-oxoethoxy)pyridin-2-yl)methanesulfonamide]
0.006	CC(=O)N1CCn2c(nc3c2C(c2sccc2F)N(C(=O)COc2ccc(N4CCOCC4)nc2Cl)CC3)C1 (centres unmarked) [Example 5.13.1, 1-(7-acetyl-1-(3-fluorothiophen-2-yl)-3,4,6,7,8,9-hexahydropyrido[4′,3′:4,5]imidazo[1,2-a]pyrazin-2(1H)-yl)-2-((2-chloro-6-morpholinopyridin-3-yl)oxy)ethanone]
0.16	CS(=O)(=O)Nc1ccc(OCC(=O)N2CCc3nc4n(c3C2c2sccc2F)CCOC4)c(Cl)n1 (centres unmarked) [Example 6.6.3, N-(6-chloro-5-(2-(6-(3-fluorothiophen-2-yl)-3,4,8,9-tetrahydro-1H-pyrido[4′,3′:4,5]imidazo[2,1-c][1,4]oxazin-7(6H)-yl)-2-oxoethoxy)pyridin-2-yl)methanesulfonamide]
0.007	Cc1ccc(C2c3c(nc4n3CCOC4)CCN2C(=O)COc2ccc(C(=O)N(C)C)nc2Cl)c(F)c1 (centres unmarked) [Example 6.5.1, 6-chloro-5-(2-(6-(2-fluoro-4-methylphenyl)-3,4,8,9-tetrahydro-1H-pyrido[4′,3′:4,5]imidazo[2,1-c][1,4]oxazin-7(6H)-yl)-2-oxoethoxy)-N,N-dimethylpicolinamide]
0.01	CS(=O)(=O)Nc1ccc(OCC(=O)N2CCc3nc4n(c3C2c2ccc(C3CC3)cc2F)CCS4)c(Cl)n1 (centres unmarked) [Example 4.3.2, N-(6-chloro-5-(2-(5-(4-cyclopropyl-2-fluorophenyl)-2,3,7,8-tetrahydrothiazolo[2′,3′:2,3]imidazo[4,5-c]pyridin-6(5H)-yl)-2-oxoethoxy)pyridin-2-yl)methanesulfonamide]
